Patent US5916905A, “2,3-substituted pyridines for the treatment of inflammation” (G. D. Searle & Co., priority 1997, dated 1999)

What was measured:
[1] = target: T1, COX-1 (Homo sapiens, UniProt P23219); assay: COX-1 activity in vitro, recombinant human enzyme (PGE2 ELISA); type: biochemical; details: human (h); 10 μM arachidonic acid, 10-20 min pre-incubation; read-out: COX-1 ID50
T1 construct: A 2.0 kb fragment containing the coding region; made in house; host or cells: SF9 insect cells (baculovirus, pVL1393)
Description: (§1) The COX-2 inhibition activity of the compounds of this invention illustrated in the Examples was determined by the following methods.
(§2) Recombinant COX-1 and COX-2 were prepared as described by Gierse et al, [J. Biochem., 305, 479-84 (1995)]. A 2.0 kb fragment containing the coding region of either human or murine COX-1 or human or murine COX-2 was cloned into a BamH1 site of the baculovirus transfer vector pVL1393 (Invitrogen) to generate the baculovirus transfer vectors for COX-1 and COX-2 in a manner similar to the method of D. R. O'Reilly et al (Baculovirus Expression Vectors: A Laboratory Manual (1992)). Recombinant baculoviruses were isolated by transfecting 4 μg of baculovirus transfer vector DNA into SF9 insect cells (2×10^8) along with 200 ng of linearized baculovirus plasmid DNA by the calcium phosphate method. See M. D. Summers and G. E. Smith, A Manual of Methods for Baculovirus Vectors and Insect Cell Culture Procedures, Texas Agric. Exp. Station Bull. 1555 (1987). Recombinant viruses were purified by three rounds of plaque purification and high titer (10^7 -10^8 pfu/ml) stocks of virus were prepared. For large scale production, SF9 insect cells were infected in 10 liter fermentors (0.5×10^6 /ml) with the recombinant baculovirus stock such that the multiplicity of infection was 0.1. After 72 hours the cells were centrifuged and the cell pellet homogenized in Tris/Sucrose (50 mM: 25%, pH 8.0) containing 1% 3-[(3-cholamidopropyl)dimethylammonio]-1-propanesulfonate (CHAPS). The homogenate was centrifuged at 10,000×G for 30 minutes, and the resultant supernatant was stored at -80° C. before being assayed for COX activity.
(§3) b. Assay for COX-1 and COX-2 activity COX activity was assayed as PGE2 formed/μg protein/time using an ELISA to detect the prostaglandin released. CHAPS-solubilized insect cell membranes containing the appropriate COX enzyme were incubated in a potassium phosphate buffer (50 mM, pH 8.0) containing epinephrine, phenol, and heme with the addition of arachidonic acid (10 μM). Compounds were pre-incubated with the enzyme for 10-20 minutes prior to the addition of arachidonic acid. Any reaction between the arachidonic acid and the enzyme was stopped after ten minutes at 37° C./room temperature by transferring 40 μl of reaction mix into 160 μl ELISA buffer and 25 μM indomethacin. The PGE2 formed was measured by standard ELISA technology (Cayman Chemical).

[2] = target: T2, COX-2 (Homo sapiens, UniProt P35354); assay: COX-2 activity in vitro, recombinant human enzyme (PGE2 ELISA); type: biochemical; details: human (h); 10 μM arachidonic acid, 10-20 min pre-incubation; read-out: COX-2 ID50
T2 construct: A 2.0 kb fragment containing the coding region; made in house; host or cells: SF9 insect cells (baculovirus, pVL1393)
T2 sequence (P35354 18-604): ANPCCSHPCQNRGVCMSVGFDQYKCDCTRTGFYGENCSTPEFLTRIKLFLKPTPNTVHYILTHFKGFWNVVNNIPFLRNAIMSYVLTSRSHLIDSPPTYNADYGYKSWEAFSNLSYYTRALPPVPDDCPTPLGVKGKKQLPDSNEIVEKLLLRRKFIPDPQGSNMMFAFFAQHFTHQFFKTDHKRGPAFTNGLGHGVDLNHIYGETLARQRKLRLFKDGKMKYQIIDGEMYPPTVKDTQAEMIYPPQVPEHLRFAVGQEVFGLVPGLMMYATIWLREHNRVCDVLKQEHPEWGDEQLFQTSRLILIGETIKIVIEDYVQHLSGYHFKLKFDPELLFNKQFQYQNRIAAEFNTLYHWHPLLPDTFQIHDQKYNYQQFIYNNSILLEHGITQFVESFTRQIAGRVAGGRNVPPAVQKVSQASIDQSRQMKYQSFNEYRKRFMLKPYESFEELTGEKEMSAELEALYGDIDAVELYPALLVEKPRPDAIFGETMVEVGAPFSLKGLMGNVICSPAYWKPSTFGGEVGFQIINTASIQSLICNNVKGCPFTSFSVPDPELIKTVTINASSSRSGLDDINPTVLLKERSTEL
Description: as §1, §2, §3

T1 sequence (P23219 24-599): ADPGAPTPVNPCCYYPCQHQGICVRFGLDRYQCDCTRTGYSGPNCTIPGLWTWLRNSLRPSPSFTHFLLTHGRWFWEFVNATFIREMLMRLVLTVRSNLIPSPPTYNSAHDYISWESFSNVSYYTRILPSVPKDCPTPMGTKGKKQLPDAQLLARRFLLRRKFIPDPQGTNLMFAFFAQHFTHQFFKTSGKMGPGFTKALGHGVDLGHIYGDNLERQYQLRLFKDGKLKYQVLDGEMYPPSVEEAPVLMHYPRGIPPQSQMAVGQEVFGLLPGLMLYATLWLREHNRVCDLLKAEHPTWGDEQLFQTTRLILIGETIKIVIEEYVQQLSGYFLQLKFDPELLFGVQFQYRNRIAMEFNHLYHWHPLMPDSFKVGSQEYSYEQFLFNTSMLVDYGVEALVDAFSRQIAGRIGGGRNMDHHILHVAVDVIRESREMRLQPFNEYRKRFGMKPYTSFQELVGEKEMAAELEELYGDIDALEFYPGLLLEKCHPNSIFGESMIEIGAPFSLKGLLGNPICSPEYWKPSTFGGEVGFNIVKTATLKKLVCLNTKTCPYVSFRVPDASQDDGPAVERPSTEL

| SMILES | IC50 [1] | IC50 [2] |
| --- | --- | --- |
| CS(=O)(=O)c1ccc(-c2ccc(Cl)nc2-c2ccc(F)cc2)cc1 [Example 1, 2-chloro-6-(4-fluorophenyl)-5-[4-(methylsulfonyl)phenyl]pyridine] | > 100000 nM | 29000 nM |
| CCCCOc1nc(-c2ccc(F)cc2)c(-c2ccc(S(C)(=O)=O)cc2)cc1CN(C)C [Example 37, 2-Butoxy-6-(4-fluorophenyl)-N,N-dimethyl-5-[4-(methylsulfonyl)phenyl]pyridine-3-methanamine] | > 100000 nM | 800 nM |
| CCCCOc1nc(-c2ccc(F)cc2)c(-c2ccc(S(C)(=O)=O)cc2)cc1CNC [Example 42, 2-Butoxy-6-(4-fluorophenyl)-N-methyl-5-[4-(methylsulfonyl)phenyl]pyridine-3-methanamine] | > 100000 nM | 3000 nM |
| CS(=O)(=O)c1ccc(-c2ccc(N=[N+]=[N-])nc2-c2ccc(F)cc2)cc1 [Example 6, 2-Azido-6-(4-fluorophenyl)-5-[4-(methylsulfonyl)phenyl]pyridine] | > 100000 nM | 2000 nM |
| CCCCCCOc1nc(-c2ccc(F)cc2)c(-c2ccc(S(C)(=O)=O)cc2)cc1C#N [Example 18, 6-(4-Fluorophenyl)-2-hexyloxy-5-[4-(methylsulfonyl)phenyl]pyridine-3-carbonitrile] | > 100000 nM | 200 nM |
| CCCCOc1nc(-c2ccc(F)cc2)c(-c2ccc(S(C)(=O)=O)cc2)cc1COC(C)=O [Example 39, 2-Butoxy-6-(4-fluorophenyl)-5-[4-(methylsulfonyl)phenyl]pyridine-3-methanol, acetate] | > 100000 nM | 100 nM |
| CC(C)=CCOc1nc(-c2ccc(F)cc2)c(-c2ccc(S(C)(=O)=O)cc2)cc1C#N [Example 25] | > 100000 nM | 100 nM |
| CCCCOc1nc(-c2ccc(F)cc2)c(-c2ccc(S(C)(=O)=O)cc2)cc1C#N [Example 14, 2-Butoxy-6-(4-fluorophenyl)-5-[4-(methylsulfonyl)phenyl]pyridine-3-carbonitrile] | > 100000 nM | < 100 nM |
| CCCCOc1nc(-c2ccc(F)cc2)c(-c2ccc(S(C)(=O)=O)cc2)cc1CO [Example 29, 2-Butoxy-6-(4-fluorophenyl)-5-[4-(methylsulfonyl)phenyl]pyridine-3-methanol] | > 100000 nM | < 100 nM |
| CCCCOc1nc(-c2ccc(F)cc2)c(-c2ccc(S(C)(=O)=O)cc2)cc1COC(=O)CCC [Example 40, [2-Butoxy-6-(4-fluorophenyl)-5-[4-(methylsulfonyl)phenyl]pyridin-3-yl]methylbutanoate] | > 100000 nM | 100 nM |
| C=CCOc1nc(-c2ccc(F)cc2)c(-c2ccc(S(C)(=O)=O)cc2)cc1C#N [Example 17, 6-(4-Fluorophenyl)-5-[4-(methylsulfonyl)phenyl]-2-[(2-propenyl)oxy]pyridine-3-carbonitrile] | > 100000 nM | < 100 nM |
| CCCCOc1nc(-c2ccc(F)cc2)c(-c2ccc(S(C)(=O)=O)cc2)cc1COC(=O)C(C)(C)C [Example 41, [2-Butoxy-6-(4-fluorophenyl)-5-[4-(methylsulfonyl)phenyl]pyridin-3-yl]methyl-2,2-propanoate] | > 100000 nM | > 100000 nM |
| CCCCOc1nc(-c2ccc(F)cc2)c(-c2ccc(S(C)(=O)=O)cc2)cc1CN [Example 32, 2-Butoxy-6-(4-fluorophenyl)-5-[4-(methylsulfonyl)phenyl]pyridine-3-methylamine] | > 100000 nM | 1600 nM |
| CCCCOc1nc(-c2ccc(F)cc2)c(-c2ccc(S(C)(=O)=O)cc2)cc1C(C)OC(=O)CCC (racemic) [Example 44, (+/-) 1-[2-Butoxy-6-(4-fluorophenyl)-5-[4-(methylsulfonyl)phenyl]pyridin-3-yl]ethylbutanoate] | > 100000 nM | 2000 nM |
| CSc1nc(-c2ccc(F)cc2)c(-c2ccc(S(C)(=O)=O)cc2)cc1C#N [Example 13, 6-(4-Fluorophenyl)-5-[4-(methylsulfonyl)phenyl]-2-(methylthio)pyridine-3-carbonitrile] | > 100000 nM | 200 nM |
| CCCOc1nc(-c2ccc(F)cc2)c(-c2ccc(S(C)(=O)=O)cc2)cc1C#N [Example 10, 6-(4-Fluorophenyl)-5-[4-(methylsulfonyl)phenyl]-2-propoxypyridine-3-carbonitrile] | > 100000 nM | 200 nM |
| CCCCOc1nc(-c2ccc(F)cc2)c(-c2ccc(S(C)(=O)=O)cc2)cc1C(F)F [Example 31, 2-Butoxy-3-difluoromethyl-6-(4-fluorophenyl)-5-[4-(methylsulfonyl)phenyl]pyridine] | > 100000 nM | < 100 nM |
| COc1ccc(-c2nc(OC)c(C#N)cc2-c2ccc(S(C)(=O)=O)cc2)cc1 [Example 11, 2-Methoxy-6-(4-methoxyphenyl)-5-[4-(methylsulfonyl)phenyl]pyridine-3-carbonitrile] | > 100000 nM | 400 nM |
| CN(C)c1nc(-c2ccc(F)cc2)c(-c2ccc(S(C)(=O)=O)cc2)cc1C#N [Example 12, 2-(Dimethylamino)-6-(4-fluorophenyl)-5-[4-(methylsulfonyl)phenyl]pyridine-3-carbonitrile] | > 100000 nM | 600 nM |
| CS(=O)(=O)c1ccc(-c2cc(C#N)c(OCc3ccccc3)nc2-c2ccc(F)cc2)cc1 [Example 15, 6-(4-Fluorophenyl)-5-[4-(methylsulfonyl)phenyl]-2-(phenylmethoxy)pyridine-3-carbonitrile] | > 100000 nM | < 100 nM |
| CCCCOc1nc(-c2ccc(F)cc2)c(-c2ccc(S(C)(=O)=O)cc2)cc1CNC(C)=O [Example 33] | > 100000 nM | 1400 nM |
| CS(=O)(=O)c1ccc(-c2cc(C#N)c(OCCCC(F)(F)F)nc2-c2ccc(F)cc2)cc1 [Example 27, 6-(4-Fluorophenyl)-5-[4-(methylsulfonyl)phenyl]-2-(4,4,4-trifluorobutoxy)pyridine-3-carbonitrile] | > 100000 nM | 200 nM |
| CSc1ccc(-c2nc(SC)ccc2-c2ccc(S(C)(=O)=O)cc2)cc1 [Example 5, 5-[4-(Methylsulfonyl)phenyl]-2-methylthio-6-[4-(methylthio)phenyl]pyridine] | > 100000 nM | < 100 nM |
| CCCCOc1nc(-c2ccc(F)cc2)c(-c2ccc(S(C)(=O)=O)cc2)cc1C(C)O (racemic) [Example 43, (+/-) 2-Butoxy-6-(4-fluorophenyl)-α-methyl-5-[4-(methylsulfonyl)phenyl]pyridine-3-methanol] | 28000 nM | 100 nM |
| CCCCOc1nc(-c2ccc(F)cc2)c(-c2ccc(S(N)(=O)=O)cc2)cc1C#N [Example 28, 4-[6-butoxy-4-cyano-2-(4-Fluorophenyl)-3-pyridine]benzenesulfonamide] | 200 nM | < 100 nM |
| CNc1nc(-c2ccc(F)cc2)c(-c2ccc(S(C)(=O)=O)cc2)cc1C#N [Example 16, 6-(4-Fluorophenyl)-2-(methylamino)-5-[4-(methylsulfonyl)phenyl]pyridine-3-carbonitrile] | > 100000 nM | 2300 nM |
| CCCCCOc1nc(-c2ccc(F)cc2)c(-c2ccc(S(C)(=O)=O)cc2)cc1C#N [Example 24, 6-(4-Fluorophenyl)-5-[4-(methylsulfonyl)phenyl]-2-pentoxypyridine-3-carbonitrile] | > 100000 nM | < 100 nM |
